Key:
B16 tumor cells [1] = assay: Cytological test of regulating micro-heterology variation; assay type: cell-based; conditions: final concentration 1 g/100 ml, incomplete 1640 medium, continued culture more than 48 hours; control cells could not proliferate
Procedure: Conventional incomplete 1640 culture media were used for cell culture, and B16 tumor cells (commericially obtained from the tumor cell library of Shanghai Institute of Cytobiology) were inoculated on said media. After continue culture for more than 48 hours, the micro-heterology variation of cells and the control effects of N-acetyl-D-glucosamine thereon were observed under a condition where metabolic wastes affected the growth environment. […] The control cells cultured without N-acetyl-D-glucosamine could not proliferate on the same culture media under same conditions.

B16 tumor cells [2] = assay: Animal test of regulating micro-heterology variation (B16 tumor cells inoculated on hind legs); assay type: in vivo, rats; conditions: 7 days, 3 times per day; for control of micro-heterology variation compared with the control group: rats inoculated with B16 tumor cells, intra-peritoneal, 1 ml
Excerpt: In control group without the administration of the compound of formula (1), many proliferative corpuscles appeared in at least 40 among 50 rats within 1-3 days after the tumor cells were inoculated; many immature cells appeared within 3-5 days; and visible solid tumors finally appeared within about 10 days.

[3] = in vivo
Excerpt: The toxicological test of the compound of formula (I) includes: • 1. Acute toxicity test: including tests of oral administration, intravenous injection administration, and maximum limit amount for administration; • 2. Ames test; • 3. Micronucleus test of mouse bone marrow cell; • 4. Abnormality test of mouse sperm; • 5. Aberration test of mouse testis chromosome; • 6. Chronic lethal test; • 7. Sub-chronic toxicity (feed for 90 days) test; • 8. Traditional deformity-inducing test.

[4] = Treatment of a patient with hyperthyroidism; assay type: in vivo, human; conditions: one patient, capsules 100 mg, 3 times per day, 7 days
Procedure: Patient was administered with capsules of the compound of formula (1) for consecutive 7 days, 3 times per day, and 100 mg every time, during the period of treating diarrhea.

Proteus Mirabilis = assay: Promoting wave test (bio-wave model); assay type: cell-based; conditions: final concentration 0.5% in LB plate, 37° C., 9 hours, compared with control sample
Excerpt: • 1. […] (+). […] Experimental results and evaluation:

[5] = Treatment of a patient with systemic lupus erythematosus; assay type: in vivo, human; conditions: one patient, capsules 100 mg, 3 times per day, 7 days
Procedure: Patient who had definite systemic lupus erythematosus, was administered with capsules of the compound of formula (1) for consecutive 7 days, 3 times per day, and 100 mg every time, during the period of hospitalization.

Row | Structure (SMILES) | cell proliferation under a condition where metabolic wastes affected the growth environment (B16 tumor cells [1]) | control of micro-heterology variation compared with the control group (B16 tumor cells [2]) | number of rats in which solid tumor did not appear (B16 tumor cells [2]; 50 rats, 5% aqueous solution intra-peritoneally, 1 ml every time) | dosage at which the acute toxicosis reaction had not appeared [3] | therapeutical effect on hyperthyroidism (confirmed by T3 and T4 in serum) [4] | bio-wave pattern of bacterial growth (promoting wave function) (Proteus Mirabilis) | patient's symptom [5]
1 | CC(=O)N[C@H]1C(O)O[C@H](CO)[C@@H](O)[C@@H]1O.Cl (stereo partly drawn) [N-acetyl-D-glucosamine hydrochloride] | cells could proliferate continuously | exhibited function of controlling micro-heterology variation |  |  |  |  | 
2 | CC(=O)N[C@@H]1[C@@H](O)[C@H](O)[C@@H](CO)O[C@H]1O [compound of formula (I), N-acetyl-D-glucosamine] | cell number stably increased with the culture time | could control the micro-heterology variation | 45 | more than 2 g/kg | better effect of treating hyperthyroidism | finer wave mode | remitted in some extent

From patent US20070160527A1, “Use of n-acetyl-d-aminoglycosamine in treatment of local lesions or systematic symptoms related to autoimmune reactions” (priority 2003, published 2007)
